Assay results from paper PMC10584170, “Machine learning-based phenotypic imaging to characterise the targetable biology of Plasmodium falciparum male gametocytes for the development of transmission-blocking antimalarials” (PLOS Pathogens, 2023).

Columns and labels:
[1] = tested on: P. falciparum male gametocytes; test: P. falciparum Dual Gamete Formation Assay (PfDGFA), male readout (exflagellation); type: cell-based, Plasmodium falciparum NF54; details: for Average inhibition male (%): average of replicates; for % inhibition male (individual replicates) R1: replicate R1; for % inhibition male (individual replicates) R3: replicate R3; for % inhibition male (individual replicates) R4: replicate R4; for Activity: hit = >50% inhibition in male or female readout in at least 3 replicates, 0 = no class assigned
Outline: (§1)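 Male and female gamete formation were quantified by microscopy image analysis following 24 h incubation of mature NF54 gametocytes with compound and activation at 28°C with xanthurenic acid.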

[2] = tested on: P. falciparum female gametocytes; test: P. falciparum Dual Gamete Formation Assay (PfDGFA), female readout (Pfs25-positive female gametes); type: cell-based, Plasmodium falciparum NF54; details: for Average inhibition female (%): average of replicates; for % inhibition female (individual replicates) R1: replicate R1; for % inhibition female (individual replicates) R3: replicate R3; for % inhibition female (individual replicates) R4: replicate R4
Outline: as §1

[3] = 2µM, 24h preincubation with gametocytes prior to induction of gametogenesis
[4] = 2µM, 24h preincubation, hits selected on >50% inhibition in the male readout across replicates
[5] = PfDGFA at 2µM, 24h preincubation
[6] = 2µM, 24h preincubation, hits selected on >50% inhibition in the female readout across replicates
[7] = 2µM, 24h preincubation, number of replicates with >50% inhibition in the male readout
[8] = 2µM, 24h preincubation, number of replicates with >50% inhibition in the female readout
[9] = PfDGFA at 2µM, 24h preincubation with gametocytes prior to induction of gametogenesis

Row | Structure (SMILES) | Average inhibition male (%) [1, 3] [%] | % inhibition male (individual replicates) R1 [1, 3] [%] | % inhibition male (individual replicates) R3 [1, 3] [%] | % inhibition male (individual replicates) R4 [1, 3] [%] | HitlevelM [1, 4] | Activity [1, 5] | Average inhibition female (%) [2, 3] [%] | % inhibition female (individual replicates) R1 [2, 3] [%] | % inhibition female (individual replicates) R3 [2, 3] [%] | % inhibition female (individual replicates) R4 [2, 3] [%] | HitlevelF [2, 6] | % inhibition male (individual replicates) R1 [1, 9] [%] | % inhibition male (individual replicates) R4 [1, 9] [%] | Average inhibition male (%) [1, 5] [%] | % inhibition female (individual replicates) R1 [2, 9] [%] | % inhibition female (individual replicates) R3 [2, 9] [%] | % inhibition female (individual replicates) R4 [2, 9] [%] | Average inhibition female (%) [2, 5] [%] | also measured
1 | CCCCCc1ccc(N2C(N)=NC(N)=NC2(C)C)cc1.Cl [TCMDC-137709] | 2.5 | 18.2 | 6.4 | -27.8 | 0 | 0 | 8.1 | 15.2 | -7.7 | 22.0 | 0 | – | – | – | – | – | – | – | –
2 | CCCCCOc1ccc(N2C(N)=NC(N)=NC2(C)C)cc1.Cl [TCMDC-137711] | -17.3 | 6.1 | -21.6 | -48.5 | 0 | 0 | 10.0 | 16.6 | -26.0 | 23.4 | 0 | – | – | – | – | – | – | – | –
3 | CC(C)(C)c1ccc(N2C(N)=NC(N)=NC2(C)C)cc1.Cl [TCMDC-137713] | -3.6 | 17.2 | 2.2 | -36.5 | – | – | 20.6 | 16.4 | 30.6 | 16.4 | – | – | – | – | – | – | – | – | HitlevelM [1, 7]: 0; HitlevelF [2, 8]: 0
4 | CCc1ccc(N2C(N)=NC(N)=NC2(C)C)cc1.Cl [TCMDC-137714] | 9.1 | 34.5 | 9.3 | -34.5 | 0 | 0 | 7.9 | 15.9 | 0.5 | 12.9 | 0 | – | – | – | – | – | – | – | –
5 | CCCC(C)c1ccc(N2C(N)=NC(N)=NC2(C)C)cc1.Cl (centres unmarked) [TCMDC-137715] | – | – | – | – | – | – | – | – | – | – | – | 8.4 | -43.6 | -6.3 | -4.9 | 0.05 | 1.4 | -2.9 | –
6 | CN1CCN(CCNc2c3ccccc3nc3c2ccc2ccccc23)CC1.Cl [TCMDC-137723] | -12.0 | -27.6 | -0.85 | 0.03 | – | – | 18.4 | 9.6 | 26.6 | 23.3 | – | – | – | – | – | – | – | – | HitlevelM [1, 7]: 0; HitlevelF [2, 8]: 0
7 | COc1ccc2nc(-c3ccccc3)cc(NCCCNc3cc(-c4ccccc4)nc4ccc(OC)cc34)c2c1.Cl [TCMDC-137734] | 9.4 | 15.3 | -6.1 | 18.2 | 0 | 0 | 5.7 | 14.1 | -18.5 | 23.4 | 0 | – | – | – | – | – | – | – | –
8 | Cl.c1ccc2c(NCCCCCCCCCNc3ccnc4ccccc34)ccnc2c1 [TCMDC-137750] | 54.0 | 40.7 | 8.2 | 84.2 | – | – | 39.1 | 35.8 | 19.4 | 48.2 | – | – | – | – | – | – | – | – | HitlevelM [1, 7]: 2; HitlevelF [2, 8]: 1
9 | COCCOc1nc(N)nc2ncc(Cc3cc(OC)ccc3OC)c(C)c12 [TCMDC-137754] | – | – | – | – | – | – | – | – | – | – | – | 18.4 | 26.2 | 25.9 | 1.5 | -13.9 | 2.0 | -4.6 | % inhibition male (individual replicates) R3 [1, 9]: 27.4%
10 | OCc1ccc2nc3c(cc2c1)-c1cccc2cccc-3c12 [TCMDC-137756] | – | – | – | – | – | – | – | – | – | – | – | -3.7 | 12.3 | 6.9 | 4.5 | -23.9 | -12.7 | -11.0 | % inhibition male (individual replicates) R3 [1, 9]: 13.3%
11 | COc1ccc(O)c(Cc2cnc3nc(N)[nH]c(=O)c3c2C)c1.CS(=O)(=O)O [TCMDC-137766] | – | – | – | – | – | – | – | – | – | – | – | 13.3 | -9.1 | 1.5 | 3.3 | -13.8 | -13.6 | -2.6 | % inhibition male (individual replicates) R3 [1, 9]: -7.3%
12 | COc1ccccc1N1CCN(CCCCNC(=O)c2ccc(NC(=O)c3ccc(OC(F)(F)F)cc3)cc2)CC1.Cl [TCMDC-137780] | -3.4 | -7.9 | -14.4 | 10.6 | 0 | 0 | 5.4 | 10.5 | -10.0 | 19.1 | 0 | – | – | – | – | – | – | – | –
